Here are results for 41 compounds from ChEMBL document CHEMBL1177782, “Synthesis and biological evaluation of oxazole derivatives as T-type calcium channel blockers” (Bioorg Med Chem Lett, 2010).

What is called IC50 is the point on the concentration scale where inhibition reaches its midpoint. The term inhibition denotes how much of the control response was suppressed.

Structures are written as SMILES.

Assay [1] addresses T1, Voltage-dependent T-type calcium channel subunit alpha-1G (Homo sapiens, UniProt O43497). Description: Inhibition of T-type CaV3.1 channel expressed in HEK293 cells assessed as inhibition of calcium current by automated patch-clamp assay. It counts as cell-based.
Assay [2] has as its target T1, Voltage-dependent T-type calcium channel subunit alpha-1G. Description: Inhibition of T-type CaV3.1 channel expressed in HEK293 cells assessed as inhibition of calcium current at 10 uM by fluorescence based HTS FDSS6000 assay. It counts as cell-based.

T1 sequence (O43497 whole entry): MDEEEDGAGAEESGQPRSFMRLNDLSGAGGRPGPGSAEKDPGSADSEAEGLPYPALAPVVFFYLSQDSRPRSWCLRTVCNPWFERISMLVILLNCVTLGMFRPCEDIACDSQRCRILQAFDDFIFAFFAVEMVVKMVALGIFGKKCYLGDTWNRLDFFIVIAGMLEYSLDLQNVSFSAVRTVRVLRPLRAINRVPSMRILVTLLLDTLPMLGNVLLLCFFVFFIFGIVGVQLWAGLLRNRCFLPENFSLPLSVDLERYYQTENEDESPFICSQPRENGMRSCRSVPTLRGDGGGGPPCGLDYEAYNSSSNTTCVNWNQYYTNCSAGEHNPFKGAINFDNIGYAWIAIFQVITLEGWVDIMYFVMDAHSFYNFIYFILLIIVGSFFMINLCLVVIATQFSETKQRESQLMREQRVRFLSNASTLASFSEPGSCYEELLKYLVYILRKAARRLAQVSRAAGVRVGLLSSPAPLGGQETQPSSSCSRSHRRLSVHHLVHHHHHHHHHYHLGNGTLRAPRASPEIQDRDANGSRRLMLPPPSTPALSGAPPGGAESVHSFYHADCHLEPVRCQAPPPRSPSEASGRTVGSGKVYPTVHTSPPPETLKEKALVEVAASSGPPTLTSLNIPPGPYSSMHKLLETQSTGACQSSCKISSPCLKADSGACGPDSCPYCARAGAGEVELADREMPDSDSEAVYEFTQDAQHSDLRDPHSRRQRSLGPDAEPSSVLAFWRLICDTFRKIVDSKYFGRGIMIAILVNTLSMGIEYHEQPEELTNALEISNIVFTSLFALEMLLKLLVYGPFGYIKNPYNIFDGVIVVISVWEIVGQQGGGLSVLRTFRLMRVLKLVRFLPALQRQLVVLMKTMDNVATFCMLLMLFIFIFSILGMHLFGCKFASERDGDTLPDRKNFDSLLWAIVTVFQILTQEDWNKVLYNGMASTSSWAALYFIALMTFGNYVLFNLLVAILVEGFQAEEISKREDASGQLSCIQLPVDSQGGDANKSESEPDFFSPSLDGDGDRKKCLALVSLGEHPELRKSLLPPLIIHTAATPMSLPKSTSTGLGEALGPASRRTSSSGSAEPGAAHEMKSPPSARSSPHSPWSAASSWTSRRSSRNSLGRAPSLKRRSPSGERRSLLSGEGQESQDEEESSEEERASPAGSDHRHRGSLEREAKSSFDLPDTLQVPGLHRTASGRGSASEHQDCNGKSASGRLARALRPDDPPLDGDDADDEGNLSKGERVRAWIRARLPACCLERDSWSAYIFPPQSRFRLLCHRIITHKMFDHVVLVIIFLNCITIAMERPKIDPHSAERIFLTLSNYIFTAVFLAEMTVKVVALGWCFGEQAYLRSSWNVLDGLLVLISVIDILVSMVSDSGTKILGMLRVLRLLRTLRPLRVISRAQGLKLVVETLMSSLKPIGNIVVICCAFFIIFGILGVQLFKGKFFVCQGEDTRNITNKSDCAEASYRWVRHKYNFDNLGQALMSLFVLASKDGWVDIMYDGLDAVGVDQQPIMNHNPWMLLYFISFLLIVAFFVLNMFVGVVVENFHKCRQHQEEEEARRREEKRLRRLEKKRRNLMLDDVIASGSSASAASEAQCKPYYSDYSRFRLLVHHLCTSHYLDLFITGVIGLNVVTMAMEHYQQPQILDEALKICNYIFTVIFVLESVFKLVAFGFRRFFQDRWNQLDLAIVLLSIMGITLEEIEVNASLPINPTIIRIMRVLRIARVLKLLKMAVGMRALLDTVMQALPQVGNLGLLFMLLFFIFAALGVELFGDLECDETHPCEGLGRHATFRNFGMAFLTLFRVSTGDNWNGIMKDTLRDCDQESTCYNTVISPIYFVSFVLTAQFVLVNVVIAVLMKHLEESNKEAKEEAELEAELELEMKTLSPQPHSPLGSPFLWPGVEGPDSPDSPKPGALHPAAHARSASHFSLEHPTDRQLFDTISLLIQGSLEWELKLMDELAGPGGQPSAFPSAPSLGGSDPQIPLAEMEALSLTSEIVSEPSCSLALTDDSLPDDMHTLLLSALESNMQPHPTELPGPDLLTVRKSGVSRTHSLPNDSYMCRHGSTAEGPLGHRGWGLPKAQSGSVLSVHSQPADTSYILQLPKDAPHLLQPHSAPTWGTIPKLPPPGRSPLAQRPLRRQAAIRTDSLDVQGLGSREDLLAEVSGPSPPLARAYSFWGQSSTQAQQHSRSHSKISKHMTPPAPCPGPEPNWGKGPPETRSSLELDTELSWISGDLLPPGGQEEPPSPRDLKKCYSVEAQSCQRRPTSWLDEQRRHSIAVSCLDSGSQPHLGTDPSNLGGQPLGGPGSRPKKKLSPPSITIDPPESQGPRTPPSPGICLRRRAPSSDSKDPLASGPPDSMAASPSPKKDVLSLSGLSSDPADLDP

Consider `CCCc1nc(-c2ccccc2)c(CNCCN2CCN(c3ccc(F)cc3)CC2)o1`, for which the half-maximal inhibitory concentration (IC50) in assay [1] was found to be 7080 nM. In assay [2], the inhibition was determined as 54.1%.

Turning to `CCCc1nc(-c2ccccc2)c(CNCCN2CCN(c3ccccc3Cl)CC2)o1`, the IC50 in assay [1] amounted to 4370 nM. In addition, the inhibition in assay [2] is 60.1%. Regarding `Cc1nc(-c2ccccc2)c(CNCCCN2CCN(c3ccc(Cl)cc3)CC2)o1`, the inhibition in assay [2] came out at 38.1%.

As for `Cc1nc(-c2ccccc2)c(CNCCN2CCN(C(c3ccccc3)c3ccccc3)CC2)o1`, the inhibition in assay [2] was found to be 57.3%. On to `CCCc1nc(-c2ccccc2)c(CNCCCN2CCN(c3ccc(F)cc3)CC2)o1`, for which the IC50 in assay [1] was found to be 3210 nM. Besides, the inhibition in assay [2] amounted to 62.5%. Consider `CCCc1nc(-c2ccccc2)c(CNCCN2CCN(c3ccc(Cl)cc3)CC2)o1`, for which the IC50 in assay [1] was found to be 2820 nM. The inhibition in assay [2] was 55.8%. The matching figures for `CCCc1nc(-c2ccccc2)c(CNCCN2CCN(c3cccc(C(F)(F)F)c3)CC2)o1`: 1940 nM and 56.3%. The like results for `CCCc1nc(-c2ccccc2)c(CNCCN2CCN(c3ccc(C)cc3C)CC2)o1` were, in that order, 2220 nM and 64.3%. Consider `CCCc1nc(-c2ccccc2)c(CNCCCN2CCN(c3ccc(OC)cc3)CC2)o1`, for which the inhibition in assay [2] turned out to be 42.1%. Turning to `CCCc1nc(-c2ccccc2)c(CNCCCN2CCN(c3ccc(C)c(C)c3)CC2)o1`, in assay [1], the concentration for half-maximal inhibition (IC50) stood at 3020 nM. In assay [2], the inhibition amounted to 54.6%. The like results for `CCCc1nc(-c2ccccc2)c(CNCCCN2CCN(c3ccccc3F)CC2)o1` were, in that order, 16100 nM and 54.4%. `CCCc1nc(-c2ccccc2)c(CNCCCN2CCN(c3ccccc3OC)CC2)o1`: the inhibition in assay [2] stood at 41%.

On to `CCCc1nc(-c2ccccc2)c(CNCCN2CCN(c3ccccc3C)CC2)o1`, for which, in assay [1], the IC50 was 4300 nM. In assay [2], the inhibition came out at 51.3%. The like results for `CCCc1nc(-c2ccccc2)c(CNCCCN2CCN(c3cccc(C(F)(F)F)c3)CC2)o1` were, in that order, 650 nM and 51.6%. The like results for `CCCc1nc(-c2ccccc2)c(CNCCN2CCN(c3ccc(C(F)(F)F)cc3)CC2)o1` were, in that order, 1300 nM and 58.7%.

Take `CCCc1nc(-c2ccccc2)c(CNCCCN2CCN(c3ccccc3Cl)CC2)o1`: in assay [1], the IC50 came out at 2800 nM. In assay [2], the inhibition came out at 64.7%.

Consider `CCCc1nc(-c2ccccc2)c(CNCCCN2CCN(c3cccc(F)c3)CC2)o1`, for which the IC50 in assay [1] turned out to be 3030 nM. Moreover, the inhibition in assay [2] came to 68.9%.

With `CCCc1nc(-c2ccccc2)c(CNCCN2CCN(c3ccccc3C(F)(F)F)CC2)o1`, the half-maximal inhibitory concentration (IC50) in assay [1] is 2100 nM. The inhibition in assay [2] was determined as 54.6%. On to `CCCc1nc(-c2ccccc2)c(CNCCN2CCN(C(c3ccccc3)c3ccccc3)CC2)o1`, for which the IC50 in assay [1] was 7470 nM. Besides, the inhibition in assay [2] came to 71.8%. Take `CCCc1nc(-c2ccccc2)c(CNCCN2CCN(c3cccc(OC)c3)CC2)o1`: in assay [2], the inhibition worked out at 40.2%. As for `CCCc1nc(-c2ccccc2)c(CNCCN2CCN(c3ccccc3)CC2)o1`, in assay [1], the concentration for half-maximal inhibition (IC50) was 10200 nM. Also, the inhibition in assay [2] was 54.3%.

With `CCCc1nc(-c2ccccc2)c(CNCCN2CCN(c3cccc(F)c3)CC2)o1`, in assay [1], the IC50 amounted to 3350 nM. Moreover, the inhibition in assay [2] came to 62.3%. `CCCc1nc(-c2ccccc2)c(CNCCN2CCN(c3ccc(C)cc3)CC2)o1`: in assay [2], the inhibition came to 48.1%. As to `CCCc1nc(-c2ccccc2)c(CNCCCN2CCN(c3ccc(C)cc3)CC2)o1`, the IC50 in assay [1] came to 130000 nM. The inhibition in assay [2] was 53.9%. The matching figures for `CCCc1nc(-c2ccccc2)c(CNCCCN2CCN(c3ccc(Cl)cc3)CC2)o1`: 1310 nM and 63.2%. The like results for `CCCc1nc(-c2ccccc2)c(CNCCN2CCN(c3ccc(C)c(C)c3)CC2)o1` were, in that order, 2220 nM and 67.9%.

Take `CCCc1nc(-c2ccccc2)c(CNCCN2CCN(c3cccc(C)c3)CC2)o1`: the inhibition in assay [2] is 43.1%. In the case of `CCCc1nc(-c2ccccc2)c(CNCCN2CCN(c3ccc(OC)cc3)CC2)o1`, the half-inhibitory concentration (IC50) in assay [1] was determined as 9200 nM. Besides, in assay [2], the inhibition was 51.5%. As for `CCCc1nc(-c2ccccc2)c(CNCCN2CCN(c3ccccc3OC)CC2)o1`, in assay [2], the inhibition turned out to be 39.7%. The same measure, in the same setting: in the case of `CCCc1nc(-c2ccccc2)c(CNCCN2CCN(c3ccccc3F)CC2)o1` it was 46.5%.

`CCCc1nc(-c2ccccc2)c(CNCCN2CCN(c3cccc(Cl)c3)CC2)o1`: the IC50 in assay [1] was 1450 nM. Further, the inhibition in assay [2] was 51.2%. The like results for `CCCc1nc(-c2ccccc2)c(CNCCCN2CCN(c3cccc(C)c3)CC2)o1` were, in that order, 1190 nM and 47.8%. The matching figures for `CCCc1nc(-c2ccccc2)c(CNCCCN2CCN(c3ccccc3C)CC2)o1`: 8750 nM and 54.5%. In the case of `CCCc1nc(-c2ccccc2)c(CNCCCN2CCN(c3ccccc3)CC2)o1`, in assay [2], the inhibition was 43.7%. The same measure, in the same setting: in the case of `CCCc1nc(-c2ccccc2)c(CNCCCN2CCN(c3cccc(OC)c3)CC2)o1` it was 36.4%. Regarding `CCCc1nc(-c2ccccc2)c(CNCCCN2CCN(c3cccc(Cl)c3)CC2)o1`, the IC50 in assay [1] was found to be 1750 nM. The inhibition in assay [2] is 65.9%. In the case of `CCCc1nc(-c2ccccc2)c(CNCCN2CCN(c3ccccn3)CC2)o1`, the inhibition in assay [2] is 48.1%. As for `CCCc1nc(-c2ccccc2)c(CNCCCN2CCN(c3cccc(C)c3C)CC2)o1`, the half-inhibitory concentration (IC50) in assay [1] was 1780 nM. The inhibition in assay [2] was 55.2%. The matching figures for `CCCc1nc(-c2ccccc2)c(CNCCN2CCN(c3cccc(C)c3C)CC2)o1`: 1710 nM and 66.7%. Turning to `CCCc1nc(-c2ccccc2)c(CNCCCN2CCN(c3ccccc3C(F)(F)F)CC2)o1`, the inhibition in assay [2] came to 45%. On to `CCCc1nc(-c2ccccc2)c(CNCCCN2CCN(c3ccc(C(F)(F)F)cc3)CC2)o1`, for which, in assay [1], the 50% inhibitory concentration (IC50) was determined as 7250 nM. For the same compound, the inhibition in assay [2] turned out to be 51.6%.
